# Read-outs that look alike come from different tables or passages of the source.
# Legend:
# [1] = Cassette bioavailability i.v., i.p., p.o. (blood and organ concentrations by HPLC-MS/MS); format: in vivo, C57BL/6 mice; conditions: for concentration at 1440 min / Cmax: female, C57BL/6, mouse; for Cmax: 15 min after application
# Procedure: (§1) All samples were extracted with 3 or 6 volumes acetonitrile containing terbuthylazine as an internal standard (ACN) relative to either sample weight or volume. Liquid samples (plasma, culture medium, cell suspensions in stability experiments) were diluted in either 3 (culture medium, cell suspensions) or 6 (plasma) volumes ACN, pellet and blood samples were extracted by addition of ACN followed by sonication for 5 min. Organ samples were digested with 0.5 µg/mg Proteinase K (Genaxxon) for 1 h at 50°C before being homogenized using a Fastprep FP-24 5G instrument (MP-Biomedicals). Homogenates were diluted with 6 volumes ACN and homogenized again. All extracts were cleared by centrifugation at ~20.000xg for 10 min at 4°C.
# (§2) Quantification of analytes was performed on an Agilent 1260/1290 Infinity system fitted with an Agilent C18 Poroshell 120 column (4.6 x 50 mm, 2.7 µm) coupled to a triple quadrupole Sciex API 4000 MS/MS detector. The mobile phase was composed of water containing 0.1% formic acid (eluent A) and acetonitrile containing 0.1% formic acid (eluent B). Gradient used was: 5% B for 0.5 min, to 100% B in 4.5 min, 100% B for 2 min, to 5% B in 0.5 min, 5% for 2.5 min. MS detection parameters are listed in SI Table S1 .
# Experimental Animals. All animal experiments were carried out in accordance with German law (35/9183.81-7/SYN 06/20). Mice, 8-18 weeks old, were purchased from Janvier Laboratories and maintained in a specific-pathogen-free animal facility with chow and water ad libitum. After arrival mice acclimated for a minimum of 7 days.
# (§3) Formulation. Test compounds were prepared for application in either 1% Tween 80, 9% PEG400 in ultrapure water (Biowest) (i.v., i.p., p.o. application) or 5 mM citric acid in 0.9% saline (Braun) (subcutaneous application). If compounds were administered subcutaneously, injections were carried out into the neck crease.
# (§4) Collection of Samples. Mice were bled from the tail vein at various timepoints. Heparin (Sigma) or K2-EDTA (Sigma) was added to blood samples to a final […] concentration of 10-15 Unit or 5 mM. Plasma was generated by centrifugation at 6800xg for 8 min at 4°C and stored at -80°C until analyzed by ELISA or CBA. Animals were sacrificed after the indicated time points by CO2 inhalation. Heart blood and organs for compound quantification by HPLC-MS/MS were collected post mortem and stored at –20°C until extracted as described above.
# Figure 3 Stability and bioavailability of macrolide conjugates. (A) Stability of A1-mac and A2-mac was measured in human blood, U937 monocytes and RPMI medium over 24 h. […] (B) Peripheral blood was collected 15, 30 60, 120, 180, 240, 360 and 1440 min after compound administration. (C) Organs were sampled 1440 min after compound administration. (A–C) Data are presented as mean ± SD.
# [2] = Compound concentrations in organs after activity-adjusted s.c. doses (Figure 5B); format: in vivo, C57BL/6 mice; conditions: 3 µmol/kg s.c., 8 h post compound application; for concentration at 8 h: female, C57BL/6, mouse, sc
# Procedure: as §1, §2, §3, §4
# Compound concentration in (A) peripheral blood collected via tail bleeding before, 15, 30 60, 120, 240, 360 and 480 min after s.c. compound application and (B) organs collected after 8 h was assessed via HPLC-MS/MS. (A, B) Data are presented as mean ± SD. (C) Levels of TNFα and IFNα as well as (D) IL6, CXCL1, CCL2, IFNβ, IFNγ and IL10 in tail plasma over time were determined via cytometric bead array. Area under the curve (AUC) of each cytokine was plotted against compound concentration.
# Human peripheral blood = assay: Full blood stimulation assay (TNFα/IFNα by ELISA); format: cell-based; conditions: 6 h, 8 donors, normalized to maximal concentration per donor; in words
# Procedure: Human peripheral blood of healthy donors was diluted in an equal volume of culture medium as described in 3.2, blood was treated with test compounds or controls at various concentrations and incubated at 37°C, 5% CO2 for 6 h. Cells were pelleted by centrifugation at 400xg for 5 min and supernatants were collected.
# Cytokine concentrations in samples were quantified either by ELISA (hTNFα, R&D Systems; hIFNα, Mabtech) or cytometric bead arrays (CBA, LegendPlex mouse anti-virus response panel, BioLegend) according to the manufacturer’s instructions. CBAs were acquired on a ZE5 Cell Analyzer (Bio-Rad) and analyzed using the LegendPlex Software Suite (Qognit/BioLegend). Absorbance of ELISA-samples was quantified using a Versamax microplate reader (Molecular Devices).
# [3] = kidney, ip, i.p. 2 mg/kg, organs sampled 1440 min after administration, read-out: concentration in kidney
# [4] = liver, ip, i.p. 2 mg/kg, organs sampled 1440 min after administration, read-out: concentration in liver
# [5] = whole blood (tail vein), iv, i.v. 0.5 mg/kg, tail vein blood
# [6] = kidney, read-out: concentration in kidney
# [7] = liver, read-out: concentration in liver
SMILES,"concentration at 1440 min [1, 3] [nM]","concentration at 1440 min [1, 4] [nM]","Cmax [1, 5] [nM]","Cmax ([1]; whole blood, ip, i.p. 2 mg/kg) [nM]","Cmax ([1]; whole blood, po, p.o. 2 mg/kg) [nM]","concentration at 8 h [2, 6] [nM]","concentration at 8 h [2, 7] [nM]",relative IFNα induction in human blood (Human peripheral blood),"concentration in liver ([1]; i.p. 2 mg/kg, organs sampled 1440 min after administration)",concentration in liver [2],TNFα concentrations in supernatants of human blood (Human peripheral blood)
CCCCc1nc2c(N)nc3ccccc3c2n1CCC1CCN(C(=O)CN(C)CC(=O)N(C)C2CC(C)OC(OC3C(C)C(OC4CC(C)(OC)C(O)C(C)O4)C(C)C(=O)OC(CC)C(C)(O)C(O)C(C)N(C)CC(C)CC3(C)O)C2O)CC1 (stereo not shown) [A1-mac],586,3390,392,299,28,2180,6030,robust and similar,–,–,–
CCCCc1nc2c(N)nc3ccccc3c2n1CCC1CCNCC1 [A1],–,–,–,–,–,469,45,robust and similar,–,–,–
CCCCc1nc2c(N)nc3ccccc3c2n1CC1CCN(C(=O)CN(C)CC(=O)N(C)[C@H]2C[C@@H](C)O[C@@H](O[C@@H]3[C@@H](C)[C@H](O[C@H]4C[C@@](C)(OC)[C@@H](O)[C@H](C)O4)[C@@H](C)C(=O)O[C@H](CC)[C@@](C)(O)[C@H](O)[C@@H](C)N(C)C[C@H](C)C[C@@]3(C)O)[C@@H]2O)CC1 [A2-mac],449,2520,352,138,22,–,–,–,–,–,–
"CCOCc1nc2c(N)nc3ccccc3c2n1CC(C)(C)O [RSQ, Resiquimod, reference compound]",–,–,854,123,41,–,–,–,< LOD,< LLOQ,highest TNFα concentrations

# Source: article PMC10319141, “Imidazoquinolines with improved pharmacokinetic properties induce a high IFNα to TNFα ratio in vitro and in vivo” (Frontiers in Immunology, 2023)
